In ChEMBL document CHEMBL1909046, “DrugMatrix in vitro pharmacology data”:

Tested on: not listed separately
Assay: DRUGMATRIX: GABAA, Chloride Channel, TBOB radioligand binding (ligand: [3H] TBOB)
Assay type: cell membranes, Rattus norvegicus, Wistar, Cerebral cortex, Membrane
Conditions: Not Active = under 50% inhibition at 10 µM

Which IC50 does the source give for `COc1cc(OC)c(C(=O)CCCN2CCCC2)c(OC)c1` [BUFLOMEDIL] here?
Its IC50 is “Not Active”.

What about the Ki of the same molecule?
The Ki was “Not Active”.

For `ClC(Cl)(Cl)Cl` [CARBON TETRACHLORIDE], which IC50 is on record?
Its IC50 is “Not Active”.

What about the Ki of the same molecule?
Its Ki is “Not Active”.

For `CO/N=C(\C(=O)N[C@@H]1C(=O)N2C(C(=O)O)=C(COC(C)=O)CS[C@H]12)c1csc(N)n1` [CEFOTAXIME], which IC50 is on record?
Its IC50 is “Not Active”.

And the Ki?
The Ki was “Not Active”.

Which results are given for `CNC1=Nc2ccc(Cl)cc2C(c2ccccc2)=[N+]([O-])C1` [CHLORDIAZEPOXIDE]?
IC50: Not Active; Ki: Not Active

Which results are given for `Cc1cc(O)cc(C)c1Cl` [CHLOROXYLENOL]?
IC50: Not Active; Ki: Not Active

Which IC50 does the source give for `CCCNC(=O)NS(=O)(=O)c1ccc(Cl)cc1` [CHLORPROPAMIDE] here?
The IC50 was “Not Active”.

What about the Ki of the same molecule?
The Ki was “Not Active”.

Which IC50 does the source give for `NS(=O)(=O)c1cc(C2(O)NC(=O)c3ccccc32)ccc1Cl` (stereo not drawn) [CHLORTHALIDONE] here?
The IC50 was “Not Active”.

And the Ki?
The Ki was “Not Active”.

Target: Melanocortin receptor 3 (Homo sapiens, UniProt P41968); note: in other assays of this panel Not Active means under 50% inhibition at 10 µM
Assay: not given
Assay type: cell membranes, Membrane
Conditions: hek293

Chain of Melanocortin receptor 3 (P41968 whole entry): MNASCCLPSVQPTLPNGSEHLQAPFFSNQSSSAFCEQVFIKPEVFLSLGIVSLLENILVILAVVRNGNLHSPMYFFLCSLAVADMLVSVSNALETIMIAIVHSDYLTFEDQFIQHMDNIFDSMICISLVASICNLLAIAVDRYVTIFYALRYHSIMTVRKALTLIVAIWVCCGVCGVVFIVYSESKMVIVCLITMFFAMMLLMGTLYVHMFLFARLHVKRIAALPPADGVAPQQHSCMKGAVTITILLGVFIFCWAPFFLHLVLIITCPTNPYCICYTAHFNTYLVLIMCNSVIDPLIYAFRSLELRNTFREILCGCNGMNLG

For `COc1cc(OC)c(C(=O)CCCN2CCCC2)c(OC)c1` [BUFLOMEDIL], which IC50 is on record?
The IC50 was “Not Active”.

With `ClC(Cl)(Cl)Cl` [CARBON TETRACHLORIDE] as the molecule, how does the IC50 read?
Its IC50 is “Not Active”.

With `CO/N=C(\C(=O)N[C@@H]1C(=O)N2C(C(=O)O)=C(COC(C)=O)CS[C@H]12)c1csc(N)n1` [CEFOTAXIME] as the molecule, how does the IC50 read?
The IC50 was “Not Active”.

With `CNC1=Nc2ccc(Cl)cc2C(c2ccccc2)=[N+]([O-])C1` [CHLORDIAZEPOXIDE] as the molecule, how does the IC50 read?
Its IC50 is “Not Active”.

Which IC50 does the source give for `Cc1cc(O)cc(C)c1Cl` [CHLOROXYLENOL] here?
The IC50 was “Not Active”.

With `CCCNC(=O)NS(=O)(=O)c1ccc(Cl)cc1` [CHLORPROPAMIDE] as the molecule, how does the IC50 read?
Its IC50 is “Not Active”.

For `NS(=O)(=O)c1cc(C2(O)NC(=O)c3ccccc32)ccc1Cl` (stereo not drawn) [CHLORTHALIDONE], which IC50 is on record?
The IC50 was “Not Active”.

Tested on: not listed separately
Assay: DRUGMATRIX: GABAA, Muscimol, Central radioligand binding (ligand: [3H] Muscimol)
Assay type: cell membranes, Rattus norvegicus, Wistar, Brain, Membrane
Conditions: Not Active = under 50% inhibition at 10 µM

Which IC50 does the source give for `COc1cc(OC)c(C(=O)CCCN2CCCC2)c(OC)c1` [BUFLOMEDIL] here?
The IC50 was “Not Active”.

And the Ki?
The Ki was “Not Active”.

With `ClC(Cl)(Cl)Cl` [CARBON TETRACHLORIDE] as the molecule, how does the IC50 read?
The IC50 was “Not Active”.

What about the Ki of the same molecule?
Its Ki is “Not Active”.

Which IC50 does the source give for `CO/N=C(\C(=O)N[C@@H]1C(=O)N2C(C(=O)O)=C(COC(C)=O)CS[C@H]12)c1csc(N)n1` [CEFOTAXIME] here?
The IC50 was “Not Active”.

What about the Ki of the same molecule?
The Ki was “Not Active”.

Which IC50 does the source give for `CNC1=Nc2ccc(Cl)cc2C(c2ccccc2)=[N+]([O-])C1` [CHLORDIAZEPOXIDE] here?
The IC50 was “Not Active”.

And the Ki?
Its Ki is “Not Active”.

Which results are given for `Cc1cc(O)cc(C)c1Cl` [CHLOROXYLENOL]?
IC50: Not Active; Ki: Not Active

What does the source list for `CCCNC(=O)NS(=O)(=O)c1ccc(Cl)cc1` [CHLORPROPAMIDE]?
IC50: Not Active; Ki: Not Active

For `NS(=O)(=O)c1cc(C2(O)NC(=O)c3ccccc32)ccc1Cl` (stereo not drawn) [CHLORTHALIDONE], which IC50 is on record?
Its IC50 is “Not Active”.

What about the Ki of the same molecule?
The Ki was “Not Active”.

Target: Adenosine receptor A2a (Homo sapiens, UniProt P29274)
Assay: DRUGMATRIX: Adenosine A2A radioligand binding (ligand: […])
Assay type: cell membranes, HEK293, Membrane
Conditions: hek293; Not Active = under 50% inhibition at 10 µM

Chain of Adenosine receptor A2a (P29274 whole entry): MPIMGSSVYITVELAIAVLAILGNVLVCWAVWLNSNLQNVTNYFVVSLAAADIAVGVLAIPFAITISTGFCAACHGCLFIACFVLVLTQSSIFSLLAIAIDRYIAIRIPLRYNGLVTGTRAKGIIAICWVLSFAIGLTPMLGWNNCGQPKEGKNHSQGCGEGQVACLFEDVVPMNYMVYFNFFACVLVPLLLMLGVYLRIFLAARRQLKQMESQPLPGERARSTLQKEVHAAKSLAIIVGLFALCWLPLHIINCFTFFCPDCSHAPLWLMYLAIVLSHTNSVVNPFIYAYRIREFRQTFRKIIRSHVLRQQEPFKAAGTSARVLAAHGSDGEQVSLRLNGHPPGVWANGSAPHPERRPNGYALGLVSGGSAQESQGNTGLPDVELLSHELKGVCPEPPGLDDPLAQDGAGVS

For `COc1cc(OC)c(C(=O)CCCN2CCCC2)c(OC)c1` [BUFLOMEDIL], which IC50 is on record?
The IC50 was “Not Active”.

With `ClC(Cl)(Cl)Cl` [CARBON TETRACHLORIDE] as the molecule, how does the IC50 read?
Its IC50 is “Not Active”.

Which IC50 does the source give for `CO/N=C(\C(=O)N[C@@H]1C(=O)N2C(C(=O)O)=C(COC(C)=O)CS[C@H]12)c1csc(N)n1` [CEFOTAXIME] here?
Its IC50 is “Not Active”.

Which IC50 does the source give for `CNC1=Nc2ccc(Cl)cc2C(c2ccccc2)=[N+]([O-])C1` [CHLORDIAZEPOXIDE] here?
Its IC50 is “Not Active”.

For `Cc1cc(O)cc(C)c1Cl` [CHLOROXYLENOL], which IC50 is on record?
Its IC50 is “Not Active”.

For `CCCNC(=O)NS(=O)(=O)c1ccc(Cl)cc1` [CHLORPROPAMIDE], which IC50 is on record?
Its IC50 is “Not Active”.

For `NS(=O)(=O)c1cc(C2(O)NC(=O)c3ccccc32)ccc1Cl` (stereo not drawn) [CHLORTHALIDONE], which IC50 is on record?
The IC50 was “Not Active”.

Target: T1, Polyunsaturated fatty acid lipoxygenase ALOX15 (Oryctolagus cuniculus, UniProt P12530);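 note: inhibition of 15-lipoxygenase enzyme activity measured with linoleic acid as the substrate; in other assays of this panel Not Active means under 50% inhibition at 10 µM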
T1 sequence (P12530 whole entry): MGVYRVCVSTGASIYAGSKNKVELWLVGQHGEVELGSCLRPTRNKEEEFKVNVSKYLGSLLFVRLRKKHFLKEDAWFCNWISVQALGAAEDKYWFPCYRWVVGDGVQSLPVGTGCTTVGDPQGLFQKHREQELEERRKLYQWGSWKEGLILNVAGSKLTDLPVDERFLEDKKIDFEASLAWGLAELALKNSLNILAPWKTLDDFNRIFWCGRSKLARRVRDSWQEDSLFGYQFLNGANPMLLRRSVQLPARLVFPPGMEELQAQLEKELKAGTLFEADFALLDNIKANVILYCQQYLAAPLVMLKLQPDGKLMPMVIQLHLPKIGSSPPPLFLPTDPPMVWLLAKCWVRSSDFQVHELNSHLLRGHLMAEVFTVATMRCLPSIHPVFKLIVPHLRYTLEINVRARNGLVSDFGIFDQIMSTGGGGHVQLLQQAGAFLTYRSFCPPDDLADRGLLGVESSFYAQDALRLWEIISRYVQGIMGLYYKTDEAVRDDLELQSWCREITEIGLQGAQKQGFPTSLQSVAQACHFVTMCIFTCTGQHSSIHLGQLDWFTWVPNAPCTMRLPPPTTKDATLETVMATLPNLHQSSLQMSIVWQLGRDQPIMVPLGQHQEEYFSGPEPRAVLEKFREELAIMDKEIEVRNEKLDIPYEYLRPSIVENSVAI
Assay: biochemical
Assay type: tissue-based, Reticulocytes
Conditions: reticulocytes

For `COc1cc(OC)c(C(=O)CCCN2CCCC2)c(OC)c1` [BUFLOMEDIL], which IC50 is on record?
Its IC50 is “Not Active”.

For `ClC(Cl)(Cl)Cl` [CARBON TETRACHLORIDE], which IC50 is on record?
The IC50 was “Not Active”.

With `CO/N=C(\C(=O)N[C@@H]1C(=O)N2C(C(=O)O)=C(COC(C)=O)CS[C@H]12)c1csc(N)n1` [CEFOTAXIME] as the molecule, how does the IC50 read?
Its IC50 is “Not Active”.

For `CNC1=Nc2ccc(Cl)cc2C(c2ccccc2)=[N+]([O-])C1` [CHLORDIAZEPOXIDE], which IC50 is on record?
Its IC50 is “Not Active”.

For `Cc1cc(O)cc(C)c1Cl` [CHLOROXYLENOL], which IC50 is on record?
Its IC50 is “Not Active”.

Which IC50 does the source give for `CCCNC(=O)NS(=O)(=O)c1ccc(Cl)cc1` [CHLORPROPAMIDE] here?
Its IC50 is “Not Active”.

With `NS(=O)(=O)c1cc(C2(O)NC(=O)c3ccccc32)ccc1Cl` (stereo not drawn) [CHLORTHALIDONE] as the molecule, how does the IC50 read?
Its IC50 is “Not Active”.

Tested on: not listed separately
Assay: DRUGMATRIX: Phosphodiesterase PDE4 enzyme inhibition (substrate: [3H]cAMP + cAMP)
Conditions: u-937; Not Active = under 50% inhibition at 10 µM

What does the source list for `COc1cc(OC)c(C(=O)CCCN2CCCC2)c(OC)c1` [BUFLOMEDIL]?
IC50: Not Active; Ki: Not Active

Which IC50 does the source give for `ClC(Cl)(Cl)Cl` [CARBON TETRACHLORIDE] here?
Its IC50 is “Not Active”.

What about the Ki of the same molecule?
The Ki was “Not Active”.

Which IC50 does the source give for `CO/N=C(\C(=O)N[C@@H]1C(=O)N2C(C(=O)O)=C(COC(C)=O)CS[C@H]12)c1csc(N)n1` [CEFOTAXIME] here?
The IC50 was “Not Active”.

And the Ki?
Its Ki is “Not Active”.

For `CNC1=Nc2ccc(Cl)cc2C(c2ccccc2)=[N+]([O-])C1` [CHLORDIAZEPOXIDE], which IC50 is on record?
Its IC50 is “Not Active”.

What about the Ki of the same molecule?
The Ki was “Not Active”.

Which results are given for `Cc1cc(O)cc(C)c1Cl` [CHLOROXYLENOL]?
IC50: Not Active; Ki: Not Active

For `CCCNC(=O)NS(=O)(=O)c1ccc(Cl)cc1` [CHLORPROPAMIDE], which IC50 is on record?
Its IC50 is “Not Active”.

And the Ki?
Its Ki is “Not Active”.

With `NS(=O)(=O)c1cc(C2(O)NC(=O)c3ccccc32)ccc1Cl` (stereo not drawn) [CHLORTHALIDONE] as the molecule, how does the IC50 read?
The IC50 was “Not Active”.

What about the Ki of the same molecule?
Its Ki is “Not Active”.
